Assay results taken from publication PMC11811597, “Phenomics‐Based Discovery of Novel Orthosteric Choline Kinase Inhibitors” (Angewandte Chemie (International Ed. in English), 2025).
“Also recorded” adds a separate entry of the source.

Experiments:
CHKA = CHKA (Homo sapiens, UniProt P35790); assay: Competitive affinity-based chemoproteomics (UNC0965 matrix), PBMC cell extract; type: binding; parameters: endogenous in cells; conditions: 20 µM competitor
Procedure: described.[2] Lysates were precleared with bead slurry (100 μL) for 30 min at 4 °C and then treated with UNC0638 or UNC0737 (20 μM) or DMSO control for 30 min at 4 °C followed by incubation with affinity matrix for 2 h at 4 °C. Affinity matrices were washed with buffer A (5 mL) and proteins eluted with 100 μL of 2x Laemmli sample buffer, 100 mM DTT, in PBS and heating for 10 min at 90 °C.
Eluents (70 µL) were diluted in 0.1 M Tris (pH 7.8) to 200 µL, reduced with 5 mM DTT for 30 min at RT, and alkylated with 20 mM iodoacetamide for 30 min at RT in the dark. Proteins were precipitated by sequential addition of MeOH (600 µL), CHCl3 (150 µL) and H2O (450 µL), pelleted (17,000 × g, 5 min), washed with further MeOH (2 × 600 µL), and re-pelleted. Air dried pellets were resuspended in 50 μL 6 M urea (pH 7.8) by vortexing and then diluted with 250 μL H2O before adding 1 µg trypsin for overnight incubation at 37 °C. The digests were acidified with FA (1% v/v final concentration), desalted using SOLA HRP SPE Cartridges (Thermo Fisher), eluted with 69% v/v MeCN, 0.1% v/v FA in H2O (600 μL) and dried in vacuo. Dried peptides were stored at -20 °C before resuspension in 2% v/v MeCN, 0.1% v/v FA in H2O (20 μL) for LC-MS/MS analysis.
LC-MS/MS Data Acquisition
(§1) Digested samples were analysed by nano-UPLC–MS/MS using a Dionex Ultimate 3000 nano UPLC fitted with an EASY spray column (75 μm × 500 mm, 2 μm particle size, Thermo Scientific), coupled to an Orbitrap Q Exactive instrument. […]
Raw data was processed using MaxQuant[3] version 2.0.1.0 and the reference complete human proteome FASTA file (UniProt, downloaded 05.08.21). Label Free Quantification (LFQ) and Match Between Runs were selected; Cysteine carbamidomethylation was selected as a fixed modification, and methionine oxidation and asparagine deamidation as variable modifications. Default settings for identification and quantification were used. […]
mode selected for both identification and quantification of proteins (razor peptides are uniquely assigned to protein groups and not to individual proteins).

FAM195A = target: T1, FAM195A (Homo sapiens, UniProt Q9BUT9); assay: Competitive affinity-based chemoproteomics (UNC0965 matrix), MCF7 lysate; type: binding; conditions: 20 μM competitor, n=2
T1 construct: endogenous in cells; host or cells: MCF7 whole cell lysate
Procedure: A-366 and UNC0638 were purchased from Tocris. ARIAD and V-11-07-11 were purchased from Wuxi Apptec. UNC0737 and UNC0965 were synthesised as previously described.[1] Hemicholinium-3 and pyruvate kinase/lactic dehydrogenase enzymes were purchased from Sigma Aldrich. Aqueous and organic solvents were MS-grade and acquired by Sigma Aldrich unless stated otherwise.
MDA-MB-231, MCF7 and HEK293 cells were cultured in DMEM (Gibco, #11965092) supplemented with 10% FBS. K562 were cultured in IMDM (Gibco, #12440053) supplemented with 10% FBS. HepG2 were cultured in MEM (Gibco, #11095080) supplemented with 10 % FBS. […]
cultured in McCoy’s 5A (Sigma, M8403) supplemented with 10 % FBS and 1x GlutaMAX (Gibco, #35050061). Cells were maintained at 37 °C in a humidified 5% CO2 atmosphere. Peripheral blood mononuclear cells (PBMC) were isolated from healthy blood donors by density centrifugation. […]
Cell Titer-Glo® reagent was added to each well and total luminescence readings were performed within 15 min using the PHERAstar FSX (BMG Labtech). […]
as §1

CHKA, sequence (P35790 whole entry): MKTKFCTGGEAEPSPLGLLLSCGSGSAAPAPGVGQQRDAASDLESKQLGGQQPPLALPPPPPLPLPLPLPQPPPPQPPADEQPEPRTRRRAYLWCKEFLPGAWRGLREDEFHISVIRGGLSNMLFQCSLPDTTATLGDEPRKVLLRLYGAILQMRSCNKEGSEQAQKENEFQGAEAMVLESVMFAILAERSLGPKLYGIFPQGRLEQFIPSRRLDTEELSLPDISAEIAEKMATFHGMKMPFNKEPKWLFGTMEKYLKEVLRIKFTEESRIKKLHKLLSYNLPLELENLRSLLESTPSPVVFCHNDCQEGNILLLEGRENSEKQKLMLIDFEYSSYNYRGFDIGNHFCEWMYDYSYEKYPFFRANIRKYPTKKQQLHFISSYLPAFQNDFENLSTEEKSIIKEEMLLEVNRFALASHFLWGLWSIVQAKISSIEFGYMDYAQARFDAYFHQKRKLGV
T1 sequence (Q9BUT9 whole entry): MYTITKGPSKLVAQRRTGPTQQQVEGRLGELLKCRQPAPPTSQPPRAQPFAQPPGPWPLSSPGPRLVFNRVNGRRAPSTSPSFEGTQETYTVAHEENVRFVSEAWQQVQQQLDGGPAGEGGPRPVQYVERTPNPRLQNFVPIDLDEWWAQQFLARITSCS

Row | Structure (SMILES) | competition for CHKA binding to affinity matrix (CHKA) | FC vs DMSO (log2 competition), FAM195A (FAM195A)
1 | COc1cc2c(NC3CCN(C(C)C)CC3)nc(C3CCCCC3)nc2cc1OCCCN1CCCC1 [UNC0638] | sole shared target | -1.845
2 | COc1cc2c(N(C)C3CCN(C(C)C)CC3)nc(C3CCCCC3)nc2cc1OCCCN1CCCC1 [UNC0737] | sole shared target; also recorded: reduced stronger | -0.06296
